Test results as given in patent US20200024278A1, “COMPOSITION COMPRISING ANTIBIOTIC COMPOUND AND AN HETEROCYCLIC COMPOUND AND THEIR USE IN PREVENTING OR TREATING BACTERIAL INFECTIONS” (MUTABILIS, priority 2016, published 2020).

Assays:
Test in all cases: MIC, broth microdilution (CLSI), substance alone or ATB combined with compound at 4 or 8 μg/mL
[1] = tested on: PAE UFR48; assay type: cell-based, P. aeruginosa; details: PAE UFR48
Outline: (§1)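 Growth inhibition endpoint, read visually after 16-20 h at 35° C in ambient air. Cation-adjusted Mueller-Hinton broth, inoculum 5·10^5 CFU/mL, CLSI M7-A7 protocol.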

[2] = tested on: PAE UFR90; assay type: cell-based, P. aeruginosa; details: PAE UFR90
Outline: as §1

[3] = tested on: PAE 105250; assay type: cell-based, P. aeruginosa; details: PAE 105250
Outline: as §1

[4] = tested on: ECL P99; assay type: cell-based, E. cloacae; details: ECL P99
Outline: as §1

[5] = tested on: SAU 29213; assay type: cell-based, S. aureus; details: SAU 29213
Outline: as §1

[6] = tested on: KPN 6299; assay type: cell-based, K. pneumoniae
Outline: as §1

## CN(C)c1cc(NC(=O)CNC(C)(C)C)c(O)c2c1C[C@H]1C[C@H]3[C@H](N(C)C)C(O)=C(C(N)=O)C(=O)[C@@]3(O)C(O)=C1C2=O [TGC]
[1]; antibiotic alone
  MIC ATB alone: 32 µg/mL
[1]; with Example 1 @8 μg/ml
  MIC ATB combined with Example 1 @8 μg/ml: <0.031 µg/mL
[1]; with Example 1 at 8 μg/ml
  MIC ATB combined with Example 1 @8 μg/ml: <0.031 µg/mL
[1]; with Example 7 at 8 μg/ml
  MIC ATB combined with Example 7 @8 μgml: >32 µg/mL
[1]; with Example 9 @4 μg/ml
  MIC ATB combined with Example 9 @4 μg/ml: 32 µg/mL
[1]; with Example 9 at 4 μg/ml
  MIC ATB combined with Example 9 @4 μg/ml: 32 µg/mL
[1]; with Example 11 at 8 μg/ml
  MIC ATB combined with Example 11 @8 μg/ml: 32 µg/mL
[1]; with Example 12 at 8 μg/ml
  MIC ATB combined with Example 12 @8 μg/ml: 32 µg/mL
[1]; with Example 13 at 8 μg/ml
  MIC ATB combined with Example 13 @8 μg/ml: 32 µg/mL
[1]; with Example 14 at 8 μg/ml
  MIC ATB combined with Example 14 @8 μg/ml: 32 µg/mL
[1]; with Example 15 at 4 μg/ml
  MIC ATB combined with Example 15 @4 μgml: 32 µg/mL
[1]; with Example 16 at 4 μg/ml
  MIC ATB combined with Example 16 @4 μg/ml: 32 µg/mL
[2]; antibiotic alone
  MIC ATB alone: 16 µg/mL
[2]; with Example 1 @8 μg/ml
  MIC ATB combined with Example 1 @8 μg/ml: <0.031 µg/mL
[2]; with Example 1 at 8 μg/ml
  MIC ATB combined with Example 1 @8 μg/ml: <0.031 µg/mL
[2]; with Example 7 at 8 μg/ml
  MIC ATB combined with Example 7 @8 μgml: 32 µg/mL
[2]; with Example 9 @4 μg/ml
  MIC ATB combined with Example 9 @4 μg/ml: 16 µg/mL
[2]; with Example 9 at 4 μg/ml
  MIC ATB combined with Example 9 @4 μg/ml: 16 µg/mL
[2]; with Example 11 at 8 μg/ml
  MIC ATB combined with Example 11 @8 μg/ml: 16 µg/mL
[2]; with Example 12 at 8 μg/ml
  MIC ATB combined with Example 12 @8 μg/ml: 16 µg/mL
[2]; with Example 13 at 8 μg/ml
  MIC ATB combined with Example 13 @8 μg/ml: 16 µg/mL
[2]; with Example 14 at 8 μg/ml
  MIC ATB combined with Example 14 @8 μg/ml: 16 µg/mL
[2]; with Example 15 at 4 μg/ml
  MIC ATB combined with Example 15 @4 μgml: 16 µg/mL
[2]; with Example 16 at 4 μg/ml
  MIC ATB combined with Example 16 @4 μg/ml: 16 µg/mL
[3]; antibiotic alone
  MIC ATB alone: 8 µg/mL
[3]; with Example 1 @8 μg/ml
  MIC ATB combined with Example 1 @8 μg/ml: 0.5 µg/mL
[3]; with Example 1 at 8 μg/ml
  MIC ATB combined with Example 1 @8 μg/ml: 0.5 µg/mL
[3]; with Example 7 at 8 μg/ml
  MIC ATB combined with Example 7 @8 μgml: 32 µg/mL
[3]; with Example 9 @4 μg/ml
  MIC ATB combined with Example 9 @4 μg/ml: 8 µg/mL
[3]; with Example 9 at 4 μg/ml
  MIC ATB combined with Example 9 @4 μg/ml: 8 µg/mL
[3]; with Example 11 at 8 μg/ml
  MIC ATB combined with Example 11 @8 μg/ml: 8 µg/mL
[3]; with Example 12 at 8 μg/ml
  MIC ATB combined with Example 12 @8 μg/ml: 8 µg/mL
[3]; with Example 13 at 8 μg/ml
  MIC ATB combined with Example 13 @8 μg/ml: 8 µg/mL
[3]; with Example 14 at 8 μg/ml
  MIC ATB combined with Example 14 @8 μg/ml: 8 µg/mL
[3]; with Example 15 at 4 μg/ml
  MIC ATB combined with Example 15 @4 μgml: 8 µg/mL
[3]; with Example 16 at 4 μg/ml
  MIC ATB combined with Example 16 @4 μg/ml: 8 µg/mL
[4]; antibiotic alone
  MIC ATB alone: 0.5 µg/mL
[4]; with Example 1 @8 μg/ml
  MIC ATB combined with Example 1 @8 μg/ml: <0.031 µg/mL
[4]; with Example 1 at 8 μg/ml
  MIC ATB combined with Example 1 @8 μg/ml: <0.031 µg/mL
[4]; with Example 7 at 8 μg/ml
  MIC ATB combined with Example 7 @8 μgml: 0.25 µg/mL
[4]; with Example 9 @4 μg/ml
  MIC ATB combined with Example 9 @4 μg/ml: <0.031 µg/mL
[4]; with Example 9 at 4 μg/ml
  MIC ATB combined with Example 9 @4 μg/ml: <0.031 µg/mL
[4]; with Example 11 at 8 μg/ml
  MIC ATB combined with Example 11 @8 μg/ml: <0.031 µg/mL
[4]; with Example 12 at 8 μg/ml
  MIC ATB combined with Example 12 @8 μg/ml: <0.031 µg/mL
[4]; with Example 13 at 8 μg/ml
  MIC ATB combined with Example 13 @8 μg/ml: 0.25 µg/mL
[4]; with Example 14 at 8 μg/ml
  MIC ATB combined with Example 14 @8 μg/ml: <0.031 µg/mL
[4]; with Example 15 at 4 μg/ml
  MIC ATB combined with Example 15 @4 μgml: <0.031 µg/mL
[4]; with Example 16 at 4 μg/ml
  MIC ATB combined with Example 16 @4 μg/ml: <0.031 µg/mL
[5]; antibiotic alone
  MIC ATB alone: 0.25 µg/mL
[5]; with Example 1 @8 μg/ml
  MIC ATB combined with Example 1 @8 μg/ml: 0.125 µg/mL
[5]; with Example 1 at 8 μg/ml
  MIC ATB combined with Example 1 @8 μg/ml: 0.125 µg/mL
[5]; with Example 7 at 8 μg/ml
  MIC ATB combined with Example 7 @8 μgml: 0.25 µg/mL
[5]; with Example 9 @4 μg/ml
  MIC ATB combined with Example 9 @4 μg/ml: <0.031 µg/mL
[5]; with Example 9 at 4 μg/ml
  MIC ATB combined with Example 9 @4 μg/ml: <0.031 µg/mL
[5]; with Example 11 at 8 μg/ml
  MIC ATB combined with Example 11 @8 μg/ml: <=0.031 μg/mL
[5]; with Example 12 at 8 μg/ml
  MIC ATB combined with Example 12 @8 μg/ml: <0.031 µg/mL
[5]; with Example 13 at 8 μg/ml
  MIC ATB combined with Example 13 @8 μg/ml: 0.063 µg/mL
[5]; with Example 14 at 8 μg/ml
  MIC ATB combined with Example 14 @8 μg/ml: <0.031 µg/mL
[5]; with Example 15 at 4 μg/ml
  MIC ATB combined with Example 15 @4 μgml: <0.031 µg/mL
[5]; with Example 16 at 4 μg/ml
  MIC ATB combined with Example 16 @4 μg/ml: <0.031 µg/mL
[6]; antibiotic alone
  MIC ATB alone: 1 µg/mL
[6]; with Example 1 @8 μg/ml
  MIC ATB combined with Example 1 @8 μg/ml: 1 µg/mL
[6]; with Example 1 at 8 μg/ml
  MIC ATB combined with Example 1 @8 μg/ml: 1 µg/mL
[6]; with Example 7 at 8 μg/ml
  MIC ATB combined with Example 7 @8 μgml: 1 µg/mL
[6]; with Example 9 @4 μg/ml
  MIC ATB combined with Example 9 @4 μg/ml: 0.063 µg/mL
[6]; with Example 9 at 4 μg/ml
  MIC ATB combined with Example 9 @4 μg/ml: 0.063 µg/mL
